From patent publication US20220362386A1, “LIQUID COMPOSITIONS COMPRISING A LEVODOPA AMINO ACID CONJUGATE AND USES THEREOF” (NeuroDerm, Ltd., priority 2019, published 2022)
Structures can show the parent of a compound that is named as a salt. Where two headings read alike, the source gives them in different places. Each block holds one compound with its values, some of them ahead of it. Non-standard residues stand in square brackets, D forms with d. Residues, ends and D or L forms follow the SMILES beside them. Dopa = N[C@@H](Cc1ccc(O)c(O)c1)C(=O)O

Experiments:
physchem = type: physicochemical
Procedure: The volume of the solution in the bottle was adjusted to 5 ml, either by adding solvent, or be removing any residual solution, after which the bottle was tightly closed and left at 25° C. for stability observation. It is noted that throughout Example 4, the concentrations in the tables below were calculated taking into account the amount of solvent added or the solution removed, in which event, the calculations were performed regarding the 5 ml+(amount removed) as the volume of the solution. It is further noted that throughout this document, unless mentioned otherwise, the stability was measured using the manual visual inspection Bosch apparatus MIH DX, at a magnification of ×1.75.
(§1) The LD-Tyr free base, prepared according to Example 2, was added to a solvent, as detailed in Table 7 below, and neutralized by addition of NaOH. When maximum solubility was observed, the solution was filtered and then transferred to a bottle that was previously weighed and flushed with nitrogen. The volume of the solution in the bottle was adjusted to 5 ml, after which the bottle was tightly closed and left at 25° C. for stability observation.
(§2) When maximum solubility was observed, the solution was filtered and then transferred to a bottle that was previously weighed and flushed with nitrogen. The volume of the solution in the bottle was adjusted to 5 ml, after which the bottle was tightly closed and left at 25° C. for stability observation.
as §2, with “stored” for “left”
as §2, with “stored” for “left”
as §1, with “LD-Lys TFA salt,” for “The LD-Tyr free base,”, “1, and which comprises two equivalents of TFA,” for “2,”, “11” for “7”, “stored” for “left”
as §2, with “As detailed above regarding other solutions, with the LD-Tyr free base when” for “When”
as §1, with “LD-Lys HCl salt,” for “The LD-Tyr free base,”, “3,” for “2,”, “13” for “7”, “by the” for “by”

in vitro = details: human
Procedure: Caco-2 cells are human intestinal epithelial cells derived from a colorectal adenocarcinoma.
The assays are performed in both the apical to basolateral (A-B) and the B-A direction. The test compound is prepared at 10 μM in HBSS-HEPES (pH 7.4) with a final DMSO concentration of 1%. The working solution is centrifuged, and the supernatant is added to the donor side. The assay plate is incubated at 37° C. with gentle shaking for 60 min or 40 min for the A-B or B-A assay, respectively. For Pgp substrate assessment, the assays are run with and without 100 μM verapamil on both the A and B sides. For BCRP substrate assessment, the assays are run with and without 10 μM Ko143 on both the A and B sides. For MRP2 substrate assessment, the assays are run with and without 100 μM MK571 on both the A and B sides. Samples are aliquoted from the donor side at time zero and the end point, and from the receiver side at the end point.
Propranolol (highly permeable), labetalol (moderately permeable), ranitidine (poorly permeable), and colchicine (P-glycoprotein substrate), estrone-3-sulfate (BCRP substrate), or CDCF (MRP2 substrate) are included in each assay.
Samples are analyzed by HPLC-MS/MS using selected reaction monitoring. The HPLC system consists of a binary LC pump with an autosampler, a C-18 column, and a gradient. Conditions may be adjusted when necessary.
Fluorescein permeability is assessed in the A-B direction at pH 7.4 on both sides after the permeability assay with the test compound. The cell monolayer with a fluorescein permeability of less than 1.5×10−6 cm/s is considered intact.
The apparent permeability coefficient (Papp) of the test compound and its recovery are calculated as follows: […]
A is the surface area of the cell monolayer (0.11 cm^2). C is concentration of the test compound, expressed as peak area. D denotes donor and R is receiver. 0, mid, and end denote time zero, mid-point, and end of the incubation. Δt is the incubation time. V is the volume of the donor or receiver.
The permeability capabilities of the several LDAA compounds, in their TFA salt form, were determined using the Caco-2 B-A method.

[1] = In-vitro absorption, Caco-2 A-B permeability; type: in vitro ADME, human; details: human, Caco-2, pH 7.4, Caco-2 A-B, without verapamil; for Papp A→B at 60 min, 10 μM: 1.0E−05M
Procedure: (§3) Conditions may be adjusted when necessary.
(§4) D denotes donor and R is receiver. […] V is the volume of the donor or receiver.
(§5) The test was performed with and without verapamil, which is a permeation inhibitor, and the results are presented in Tables 22 (without verapamil) and 34 (with verapamil).

P-gp = experiment: In-vitro absorption, Caco-2 A-B permeability; type: in vitro ADME, human; details: human, Caco-2, pH 7.4, with verapamil 100 μM on both the A and B sides, Caco-2 A-B, in the presence of verapamil
Procedure: as §3, §4, §5

[2] = In-vitro metabolism of LDAA compounds using liver microsomes; type: in vitro ADME, human; details: for half-life at 0.1 μM: pH 7.4, 1.0E−07M, 0.1 mg/mL microsomal protein
Procedure: The stability of test compounds in pooled human liver microsomes was determined on 96-well plates, wherein the test compounds were quantified at five time points by HPLC-MS/MS analysis. The assay matrix included mixed gender and a pool of 50 human liver microsomes, wherein the final microsomal protein concentration was 0.1 mg/mL. The test concentration was 0.1 μM with 0.01% DMSO, 0.25% acetonitrile and 0.25% methanol.
Each test compound was pre-incubated for five minutes with pooled liver microsomes in phosphate buffer (pH 7.4) in a 37° C. shaking water-bath. The reaction was initiated by adding a nicotinamide adenine dinucleotide phosphate (NADPH)-generating system and incubating for 0, 15, 30, 45, and 60 min. The reaction was stopped by transferring the incubation mixture to acetonitrile/methanol. Samples were then mixed and centrifuged, wherein the supernatants were used for HPLC-MS/MS analysis.
In each assay the four reference compounds propranolol, imipramine, verapamil and terfenadine were tested, wherein the propranolol and the imipramine are known to be relatively stable, while the verapamil and the terfenadine are known to be readily metabolized in human liver microsomes.
All samples were analyzed by HPLC-MS/MS using selected reaction monitoring. The HPLC system consisted of a binary LC pump with autosampler, a C-18 column, and a gradient. The conditions were adjusted when necessary.
Peak areas corresponding to the test compound were recorded. The amount of each compound remaining was calculated by comparing the peak area at each time point to time zero. The half-life is calculated from the slope of the initial linear range of the logarithmic curve of compound remaining (%) vs. time, assuming first order kinetics. In addition, the intrinsic clearance (Clint) was calculated from the half-life using the following equation:
Clint(μL/min/mg protein)=0.693/(t1/2×protein concentration)
The results of the in-vitro human liver microsome metabolism tests of various LDAA compounds (10^−7M), in their TFA salt forms, are provided in FIG. 1 and in Table 17, which presents the % of the compound remaining at times 0, 15, 30, 45 and 60 minutes, two half-life measurements and the Clint, calculated as detailed above.

[3] = solvent 0.75% CD solution, pH 8.65
[4] = solvent 0.63% CD solution, pH 7.71
[5] = read-out: Percent Recovery Mean
[6] = incubation time 0 minutes, 1.0E−07M
[7] = incubation time 15 minutes, 1.0E−07M
[8] = incubation time 30 minutes, 1.0E−07M
[9] = incubation time 45 minutes, 1.0E−07M
[10] = incubation time 60 minutes, 1.0E−07M

SMILES: N[C@@H](Cc1ccc(O)c(O)c1)C(=O)N[C@@H](Cc1ccc(O)cc1)C(=O)O [LD-Tyr HCl salt] (H-[Dopa]-Tyr-OH)
Appearance (physchem; 0.75% CD solution, pH 8.65, 297 mg/ml salt): clear | Appearance (physchem; WFI, pH 8.46, 300 mg/ml salt): clear | LD-Tyr HCl salt concentration (physchem; [3]): 297 mg/mL | LD-Tyr free base Concentration (physchem; [3]): 257 mg/mL | LD-Tyr HCl salt concentration (physchem; solvent WFI, pH 8.46): 300 mg/mL | LD-Tyr free base Concentration (physchem; solvent WFI, pH 8.46): 260 mg/mL

SMILES: N=C(N)NCCC[C@H](NC(=O)[C@@H](N)Cc1ccc(O)c(O)c1)C(=O)O [LD-Arg HCl salt]
Appearance (physchem; 0.2% NaBis in WFI, pH 7.02, 550 mg/ml salt): clear | Appearance (physchem; 0.63% CD solution, pH 7.71, 520 mg/ml salt): clear | solubility thermodynamic (physchem; 25 °C, aqueous buffer, thermodynamic from solid, solvent 0.2% NaBis in WFI, pH 7.02): 550 mg/mL | Appearance (physchem; WFI, pH 7.3, 500 mg/ml salt): clear | LD-Arg free base Concentration (physchem; solvent 0.2% NaBis in WFI, pH 7.02): 440 mg/mL | LD-Arg HCl salt concentration (physchem; [4]): 520 mg/mL | LD-Arg free base Concentration (physchem; [4]): 420 mg/mL | LD-Arg HCl salt concentration (physchem; solvent WFI, pH 7.3): 500 mg/mL | LD-Arg free base Concentration (physchem; solvent WFI, pH 7.3): 390 mg/mL

recovery at 40 min, 10 μM (in vitro; Caco-2, pH 7.4, Percent Recovery 1st): 93% | recovery at 40 min, 10 μM (in vitro; Caco-2, pH 7.4, Percent Recovery 2nd): 78% | recovery at 40 min, 10 μM (in vitro; Caco-2, pH 7.4, Percent Recovery Mean): 85% | Papp B→A at 40 min, 10 μM (in vitro; Caco-2, pH 7.4, Permeability 1st): 0.38 ×10⁻⁶ cm/s | Papp B→A at 40 min, 10 μM (in vitro; Caco-2, pH 7.4, Permeability 2nd): 0.33 ×10⁻⁶ cm/s | Papp B→A at 40 min, 10 μM (in vitro; Caco-2, pH 7.4, Permeability Mean): 0.4 ×10⁻⁶ cm/s | Papp A→B at 60 min, 10 μM ([1]; read-out: Permeability 1st): 0.03 ×10⁻⁶ cm/s | Papp A→B at 60 min, 10 μM ([1]; read-out: Permeability 2nd): 0.02 ×10⁻⁶ cm/s | recovery at 60 min, 10 μM ([1]; read-out: Percent Recovery 1st): 65% | recovery at 60 min, 10 μM ([1]; read-out: Percent Recovery 2nd): 62% | recovery at 60 min, 10 μM [1, 5]: 64% | recovery at 60 min, 10 μM (P-gp; read-out: Percent Recovery 1st): 60% | recovery at 60 min, 10 μM (P-gp; read-out: Percent Recovery 2nd): 59% | recovery at 60 min, 10 μM (P-gp; [5]): 59% | half-life at 0.1 μM ([2]; both sexes, human, pooled human liver microsomes, read-out: Half-Life (minute) 1st): 54.5 min | half-life at 0.1 μM ([2]; both sexes, human, pooled human liver microsomes, read-out: Half-Life (minute) 2nd): 54.1 min | half-life at 0.1 μM ([2]; both sexes, human, pooled human liver microsomes, read-out: Half-Life (minute) Mean): 54 min | microsomal CLint at 0.1 μM ([2]; both sexes, human, pooled human liver microsomes, pH 7.4, calculated from the half-life, 1.0E−07M): 128 µL/min/mg | % Compound Remaining 1st [2, 6]: 100% | % Compound Remaining 2nd [2, 6]: 100% | % Compound Remaining Mean [2, 6]: 100% | % Compound Remaining 1st [2, 7]: 103.7% | % Compound Remaining 2nd [2, 7]: 108.1% | % Compound Remaining Mean [2, 7]: 106% | % Compound Remaining 1st [2, 8]: 86.7% | % Compound Remaining 2nd [2, 8]: 77.9% | % Compound Remaining Mean [2, 8]: 82% | % Compound Remaining 1st [2, 9]: 57.5% | % Compound Remaining 2nd [2, 9]: 56.4% | % Compound Remaining Mean [2, 9]: 57% | % Compound Remaining 1st [2, 10]: 51.7% | % Compound Remaining 2nd [2, 10]: 52.9% | % Compound Remaining Mean [2, 10]: 52%
SMILES: N[C@@H](Cc1ccc(O)c(O)c1)C(=O)NCC(=O)O [LD-Gly TFA salt, Levodopa Glycine TFA Salt]
